Assay results reported in patent US12408662B2, “Hydrogen peroxide and peracid stabilization with molecules based on a pyridine carboxylic acid” (ECOLAB USA INC., priority 2018, dated 2025).

Assay: Stability of peroxyacetic acid compositions with lower acetic acid relative to hydrogen peroxide (Example 3, FIG. 3)
Format: physicochemical

O=C(O)c1cccnc1 [Niacin, 3-pyridinecarboxylic acid]
stabilization of peroxyacetic acid (in words): comparable to commonly used stabilizers
